Legend:
STAT1 = assay: Western blot of STAT1 phosphorylation and expression; assay type: cell-based, human; conditions: MDA-MB-231
Experimental: Figure 6 (A) PMM-172 suppressed constitutive pSTAT3 (Tyr705) in a dose-dependent manner. (B) PMM-172 suppressed constitutive pSTAT3 (Tyr705) in a time-dependent manner. (C) MDA-MB-231 cells were treated with IL-6 (20 ng/mL) or vehicle for 30 min, with or without pretreatment with PMM-172 (2 μM) for 24 h. PMM-172 inhibited IL-6 induced phosphorylation of STAT3. (D) Stattic suppressed constitutive pSTAT3 (Tyr705) in a dose-dependent manner. (E) Stattic suppressed constitutive pSTAT3 (Tyr705) in a time-dependent manner. (F) Tyrosine phosphorylation of two STAT family proteins STAT1 and STAT5 were detected with specific antibodies. […] Data were shown as mean ± SD of three independent experiments. *P < 0.05, **P < 0.01. Cropped blots/gels were used in the figure and the gels had been run under the same experimental conditions; the full-length blots/gels are presented in Supplementary Figure S2.
Subsequently, we evaluated the phosphorylation level of other STAT family proteins including STAT1 and STAT5.
(§1) Cells were rinsed twice with cold PBS and then lysed with RIPA buffer containing a protease inhibitor mixture at 1:100 dilution on ice for 30 min. Insoluble components of cell lysates were removed by centrifugation (4 °C, 12000 rmp, 10 min), and protein concentrations were measured using a Pierce BCA protein assay kit. […]

[1] = MTT anti-proliferation assay, non-tumorigenic cells; assay type: cell-based; conditions: human, non-tumorigenic MCF-10A cells, 24 h treatment
Experimental: (§2) Initial experiments were performed for evaluation of growth inhibition by the new compounds against six human breast cancer cell lines, including MCF-7 (ER+/PR+, HER-2-), BT474 (ER+/PR+, HER-2+), SKBR-3 (ER-/PR-/HER-2+), MDA-MB-436 (ER-/PR-/HER-2-), MDA-MB-231 (ER-/PR-/HER-2-), MDA-MB-468 (ER-/PR-/HER-2-) and non-tumorigenic MCF-10A cells. After 24 h treatment by the obtained compounds, the inhibition was assessed and the IC50 was summarized. […] Subsequently, the inhibition of STAT3 activation by PMM-172 and Stattic was evaluated using a dual-luciferase assay.
(§3) The anti-proliferative activities of the prepared compounds against MCF-7 (ER+/PR+, HER-2-), BT474 (ER+/PR+, HER-2+), SKBR-3 (ER-/PR-/HER-2+), MDA-MB-436 (ER-/PR-/HER-2-), MDA-MB-231 (ER-/PR-/HER-2-), MDA-MB-468 (ER-/PR-/HER-2-) and non-tumorigenic MCF-10A cell lines were evaluated using a standard (MTT)-based colorimetric assay with some modification. Cell lines were grown to log phase in DMEM supplemented with 10% fetal bovine serum. Cell suspensions were prepared and 100 μL/well dispensed into 96-well plates giving 10^4 cells/well. The subsequent incubation was permitted at 37 °C, 5% CO2 atmosphere for 24 h to allow the cells to reattach. Subsequently, cells were treated with the target compounds at increasing concentrations in the presence of 10% FBS for 24 h. Then, cell viability was assessed by the conventional 3-(4, 5-dimethylthiazol-2-yl)-2, 5-diphenyltetrazolium bromide (MTT) reduction assay and carried out strictly according to the manufacturer instructions. The absorbance (OD570) was read on an ELISA reader (Tecan, Austria). In all experiments, three replicate wells were used for each drug concentration. Each assay was carried out for at least three times.

MCF-7 = assay: MTT anti-proliferation assay; assay type: cell-based, human; conditions: Homo sapiens, MCF7, 24 h treatment
Experimental: as §2, §3

MDA-MB-436 = assay: MTT anti-proliferation assay; assay type: cell-based, human; conditions: Homo sapiens, MDA-MB-436, 24 h treatment
Experimental: as §2, §3

BT-474 = assay: MTT anti-proliferation assay; assay type: cell-based, human; conditions: Homo sapiens, BT-474, 24 h treatment
Experimental: as §2, §3

MDA-MB-468 = assay: MTT anti-proliferation assay; assay type: cell-based, human; conditions: Homo sapiens, MDA-MB-468, 24 h treatment
Experimental: as §2, §3

SKBR-3 = assay: MTT anti-proliferation assay; assay type: cell-based, human; conditions: Homo sapiens, SK-BR-3, 24 h treatment
Experimental: as §2, §3

MDA-MB-231 = assay: MTT anti-proliferation assay; assay type: cell-based, human; conditions: Homo sapiens, MDA-MB-231, 24 h treatment
Experimental: as §2, §3

pSTAT3 in MCF-10A cells = assay: Western blot of pSTAT3 in non-tumorigenic cells; assay type: cell-based, human; conditions: 24 h, increasing doses
Experimental: Figure 7 MDA-MB-231 cells were treated with indicated concentrations of PMM-172 or Stattic for 24 h, the expression levels of STAT3 in cytoplasmic and nuclear extracts were examined and relative expression levels were analyzed by Image J software. β-actin and Lamin B1 served as markers of cytoplasmic and nuclear extractions, respectively. […] (C) MCF-10A cells were treated with the indicated concentrations of PMM-172 for 24 h. PMM-172 had no effect on the level of the pSTAT3 level in MCF-10A cells. […] Data were shown as mean ± SD from three independent experiments, **P < 0.01. Cropped blots/gels were used in the figure and the gels had been run under the same experimental conditions; the full-length blots/gels are presented in Supplementary Figure S3.
In the following work, we examined whether PMM-172 could affect the activity of STAT3 and viability in non-cancer cells. The non-tumorigenic MCF-10A epithelial cells were employed to be treated with increasing doses of PMM-172 to conduct this assay.
as §1

- IC50 (MCF-7): 4.87 ± 0.55 µM
- IC50 (MDA-MB-436): 3.07 ± 0.47 µM
- IC50 (BT-474): 5.26 ± 0.66 µM
- IC50 (MDA-MB-468): 3.24 ± 0.27 µM
- IC50 (SKBR-3): 3.14 ± 0.46 µM
- IC50 (MDA-MB-231): 1.98 ± 0.49 µM
Compound: COc1cc(OC)cc(-c2nnc(SCC(=O)O[C@H](CC=C(C)C)C3=CC(=O)c4c(O)ccc(O)c4C3=O)o2)c1 [PMM-172, (R)-1-(5,8-dihydroxy-1,4-dioxo-1,4-dihydronaphthalen-2-yl)-4-methylpent-3-en-1-yl 2-((5-(3,5-dimethoxyphenyl)-1,3,4-oxadiazol-2-yl)thio)acetate]
- phosphorylation and expression of STAT1 (STAT1): inhibited neither the phosphorylation nor expression
- CC50 at 24 h [1]: 95.4 ± 0.62 µM
- expression levels of total STAT3 in MCF-10A cells (pSTAT3 in MCF-10A cells): kept unchanged
- pSTAT3 level in MCF-10A cells (pSTAT3 in MCF-10A cells): had no effect

From paper PMC5460289, “Identification of New Shikonin Derivatives as Antitumor Agents Targeting STAT3 SH2 Domain” (Scientific Reports, 2017)
